From patent US10077436B2, “Beta-glucosidase enzymes for increased biomass saccharification” (Edeniq, Inc., priority 2013, dated 2018)

Test system: S-BG (Novozymes SP188 from Sigma), commercial beta-glucosidase
Experiment: BG kinetics, pNPG hydrolysis assay with glucose as competitive inhibitor, S-BG
Format: biochemical
Settings: pH 5.0, 50° C.
Source text: The kinetic properties of beta glucosidase are important for cellulosic hydrolysis, since in commercial situations a wide range of substrate concentrations and different product inhibition conditions will be encountered. In this example, a Michaelis-Menten kinetics model was used to describe BG kinetics. To determine these kinetic properties, BG activity assays using standard substrates pNPG and cellobiose were employed. yEdQ745-BG (wild type) and yEdQ885-BG (improved), were compared with two commercial BGs, A-BG (Accellerase®) BG from Dupont) and S-BG (Novozymes SP188 from Sigma).
BG activity assay using pNPG is one of the two commonly used standard assays to measure BG activity, which utilizes hydrolysis of p-nitrophenyl-β-D-glucopyranoside (pNPG) by BG into a yellow colored product, p-nitrophenol (pNP), that has a strong absorbance at 405 nm. One pNPG unit is defined as the amount of enzyme that produces 1 μmol of pNP per min. Briefly, to determine BG activity, 25 μL of diluted enzyme in 200 mM sodium acetate buffer (pH 5.0) was mixed with 25 μL of the same buffer and 25 μL of RO water (or glucose solution for the kinetic study) and the mixture was preincubated at 50° C. for 5 min. The reaction was initiated by adding 25 μL of 10 mM pNPG in 200 mM sodium acetate buffer (pH 5.0) and the mixture was incubated at 50° C. for 10 min. The reaction was then terminated by adding 100 μL of 0.25 M sodium carbonate, and the amount of pNP produced was determined by measuring absorbance at 405 nm using a predetermined calibration curve.
The range of substrate concentration was chosen to show detectable activity at the lowest concentration and saturation stage at high substrate concentration. The upper limit of inhibitor (glucose) level was chosen to get as close as possible to the real conditions during saccharification (˜4% w/v glucose) and have a detectable residual activity.
To determine the kinetic properties, a competitive inhibition mechanism was hypothesized as proposed in the literature (Chauve et al, 2010; Krogh et al, 2010). The Michaelis-Menten equation with the competitive inhibition term can be expressed in Equation (1), where [S] is the substrate concentration (mM), [I] is the inhibitor concentration (mM), V is the rate of product formation (mM/min), Vmax is the maximal rate of product formation (mM/min), Km is the Michaelis-Menten constant and Ki is the inhibition constant. The turnover number, Kcat, can be calculated by Equation (2), where [Et] is the total amount of enzyme.
Conventionally, linearization methods can be used to determine the kinetic parameters based on Equation (1). Three common linear plots used are Lineweaver-Burke, Eadie-Hofstee and Hanes plots (Rogers and Gibon, 2009). However, these linearized versions of the Michaelis-Menten equation often produce substantial errors in parameter estimation. […] All of the activity data at different substrate levels and different inhibitor levels were fit simultaneously according to the full nonlinear equation for competitive enzyme inhibition as expressed in Equation (1). Thus, Vmax, Km and Ki can be determined simultaneously from this fitting process, and Km/Ki can then be calculated. Kcat can be obtained by Equation (2) and Kcat/Km can be calculated accordingly.
The above experimental data were fit in the competitive inhibition model as expressed in Equation (1) by simultaneous nonlinear regression. The order of maximum velocity (Vmax) is A-BG>yEdQ885-BG>S-BG≈yEdQ745-BG. […] Nevertheless, the in-house BGs have much higher dissociation constant for inhibitor (Ki), indicating higher tolerance to product inhibition. Consistent with Vmax, the order of turnover number (Kcat) is A-BG>yEdQ885-BG>S-BG≈yEdQ745-BG. With much lower Km and much higher Kcat, A-BG has a considerably higher catalytic efficiency (Kcat/Km) than the other enzymes. The catalytic efficiency of S-BG and yEdQ885-BG is quite close, which is higher than that of yEdQ745-BG. […]

OC[C@H]1OC(O)[C@H](O)[C@@H](O)[C@@H]1O (some centres unmarked) [glucose]
Km/Ki (inhibitor influence, Km for pNPG / Ki for glucose): 0.52 | Ki (pNPG substrate, competitive inhibition): 810 ± 110 µM
